Measurements as given in patent publication US11339171B2, “MDM2 inhibitors” (Gan & Lee Pharmaceuticals, priority 2017, dated 2022).

Target: T1, MDM2 (Homo sapiens, UniProt Q00987)
T1 construct: made in house
Assay: Inhibition test of MDM2-P53 (GST-MDM2, Biotin-P53, Anti-GST-Tb, SA-XL665)
Format: binding
How it was run: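 HTRF-type assay using 4 nM GST-MDM2 (final), Biotin-P53, SA-XL665 and anti-GST-Tb in PBS with 0.1% BSA, 5 mM DTT and 1 mM AEBSF. Compounds in 5-fold serial dilutions over twelve points; incubation 90 min at 25° C with shaking before plate-reader read-out.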

T1 sequence (Q00987 whole entry): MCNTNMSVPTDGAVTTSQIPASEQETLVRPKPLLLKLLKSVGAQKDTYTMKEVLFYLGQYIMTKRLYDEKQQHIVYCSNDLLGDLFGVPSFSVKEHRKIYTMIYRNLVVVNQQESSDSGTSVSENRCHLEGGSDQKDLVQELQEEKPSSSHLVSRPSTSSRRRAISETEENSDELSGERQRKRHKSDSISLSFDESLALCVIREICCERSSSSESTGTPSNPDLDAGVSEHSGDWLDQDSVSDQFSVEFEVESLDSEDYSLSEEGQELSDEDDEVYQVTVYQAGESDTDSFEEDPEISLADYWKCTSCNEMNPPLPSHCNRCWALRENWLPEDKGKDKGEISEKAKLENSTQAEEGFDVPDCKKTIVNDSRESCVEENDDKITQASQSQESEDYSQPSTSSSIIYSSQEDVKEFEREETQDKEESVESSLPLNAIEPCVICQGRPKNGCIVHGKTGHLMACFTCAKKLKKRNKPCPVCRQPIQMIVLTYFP

Row | SMILES | IC50 [µM]
1 | COc1cc(OC)c(-c2nc3c(n2C(C)C)[C@]2(C(=O)Nc4cc(Cl)ccc42)N(c2cc(Cl)ccc2F)C3=O)cn1 [Example R-133, (R)-6-chloro-5′-(5-chloro-2-fluorophenyl)-2′-(4,6-dimethoxypyridin-3-yl)-3′-isopropyl-3′H-spiro[dihydroindole-3,4′-pyrrolo[3,4-d]imidazole]-2,6′(5′H)-dione] | 1.11
2 | CCOc1ncc(-c2nc3c(n2C(C)C)[C@]2(C(=O)Nc4cc(Cl)ccc42)N(c2cc(Cl)cnc2C)C3=O)c(OC)n1 [Example R-134, (R)-6-chloro-5′-(5-chloro-2-methylpyridin-3-yl)-2′-(2-ethoxy-4-methoxypyrimidin-5-yl)-3′-isopropyl-3′H-spiro[dihydroindole-3,4′-pyrrolo[3,4-d]imidazole]-2,6′(5′H)-dione] | 0.322
3 | COc1nc(N(C)C)ncc1-c1nc2c(n1C(C)C)[C@]1(C(=O)Nc3cc(Cl)ccc31)N(c1cc(Cl)cnc1C)C2=O [Example R-135, (R)-6-chloro-5′-(5-chloro-2-methylpyridin-3-yl)-2′-(2-(dimethylamino)-4-methoxypyrimidin-5-yl)-3′-isopropyl-3′H-spiro[dihydroindole-3,4′-pyrrolo[3,4-d]imidazole]-2,6′(5′H)-dione] | 0.423
4 | COc1nc(OC(C)C)ncc1-c1nc2c(n1C(C)C)[C@]1(C(=O)Nc3cc(Cl)ccc31)N(c1cc(Cl)cnc1C)C2=O [Example R-136, (R)-6-chloro-5′-(5-chloro-2-methylpyridin-3-yl)-2′-(2-isopropoxy-4-methoxypyrimidin-5-yl)-3′-isopropyl-3′H-spiro[dihydroindole-3,4′-pyrrolo[3,4-d]imidazole]-2,6′(5′H)-dione] | 1.8
5 | COc1cc(OC(C)C)ncc1-c1nc2c(n1C(C)C)[C@]1(C(=O)Nc3cc(Cl)ccc31)N(c1cc(Cl)cnc1C)C2=O [Example R-137, (R)-6-chloro-5′-(5-chloro-2-methylpyridin-3-yl)-2′-(6-isopropoxy-4-methoxypyridin-3-yl)-3′-isopropyl-3′H-spiro[dihydroindole-3,4′-pyrrolo[3,4-d]imidazole]-2,6′(5′H)-dione] | 0.422
6 | COc1cc(C(F)(F)F)ncc1-c1nc2c(n1C(C)C)[C@]1(C(=O)Nc3cc(Cl)ccc31)N(c1cc(Cl)ccc1C)C2=O [Example R-138, (R)-6-chloro-5′-(5-chloro-2-methylphenyl)-3′-isopropyl-2′-(4-methoxy-6-(trifluoromethyl)pyridin-3-yl)-3′H-spiro[dihydroindole-3,4′-pyrrolo[3,4-d]imidazole]-2,6′(5′H)-dione] | 0.132
7 | CCOc1cc(OC)c(-c2nc3c(n2C(C)C)[C@]2(C(=O)Nc4cc(Cl)ccc42)N(c2cc(F)cc(Cl)c2)C3=O)cn1 [Example R-139, (R)-6-chloro-5′-(3-chloro-5-fluorophenyl)-2′-(6-ethoxy-4-methoxypyridin-3-yl)-3′-isopropyl-3′H-spiro[dihydroindole-3,4′-pyrrolo[3,4-d]imidazole]-2,6′(5′H)-dione] | 0.342
8 | COc1nc(OCC(F)(F)F)ncc1-c1nc2c(n1C(C)C)[C@]1(C(=O)Nc3cc(Cl)ccc31)N(c1cc(Cl)ccc1C)C2=O [Example R-141, (R)-6-chloro-5′-(5-chloro-2-methylphenyl)-3′-isopropyl-2′-(4-methoxy-2-(2,2,2-trifluoroethoxy)pyrimidin-5-yl)-3′H-spiro[dihydroindole-3,4′-pyrrolo[3,4-d]imidazole]-2,6′(5′H)-dione] | 0.762
9 | COc1cc(C(F)(F)F)ncc1-c1nc2c(n1C(C)C)[C@]1(C(=O)Nc3cc(Cl)ccc31)N(c1cccc(Cl)c1)C2=O [Example R-142, (R)-6-chloro-5′-(3-chlorophenyl)-3′-isopropyl-2′-(4-methoxy-6-(trifluoromethyl)pyridin-3-yl)-3′H-spiro[dihydroindole-3,4′-pyrrolo[3,4-d]imidazole]-2,6′(5′H)-dione] | 0.137
10 | COc1cc(C2CC2)ccc1-c1nc2c(n1C(C)C)[C@]1(C(=O)Nc3cc(Cl)ccc31)N(c1cc(Cl)cnc1C)C2=O [Example R-145, (R)-6-chloro-5′-(5-chloro-2-methylpyridin-3-yl)-2′-(4-cyclopropyl-2-methoxyphenyl)-3′-isopropyl-3′H-spiro[dihydroindole-3,4′-pyrrolo[3,4-d]imidazole]-2,6′(5′H)-dione] | 0.749
11 | CCOc1ccc(-c2nc3c(n2C(C)C)[C@]2(C(=O)Nc4cc(Cl)ccc42)N(c2cc(Cl)ccc2C)C3=O)c(OC)n1 [Example R-146, (R)-6-chloro-5′-(5-chloro-2-methylphenyl)-2′-(6-ethoxy-2-methoxypyridin-3-yl)-3′-isopropyl-3′H-spiro[dihydroindole-3,4′-pyrrolo[3,4-d]imidazole]-2,6′(5′H)-dione] | 6.71
12 | COc1cc(OCCO)ccc1-c1nc2c(n1C(C)C)[C@]1(C(=O)Nc3cc(Cl)ccc31)N(c1cc(Cl)ccc1C)C2=O [Example R-148, (R)-6-chloro-5′-(5-chloro-2-methylphenyl)-2′-(4-(2-hydroxyethoxy)-2-methoxyphenyl)-3′-isopropyl-3′H-spiro[dihydroindole-3,4′-pyrrolo[3,4-d]imidazole]-2,6′(5′H)-dione] | 0.201
13 | COc1nc(C(C)C)ccc1-c1nc2c(n1C(C)C)[C@]1(C(=O)Nc3cc(Cl)ccc31)N(c1cc(Cl)ccc1C)C2=O [Example R-149, (R)-6-chloro-5′-(5-chloro-2-methylphenyl)-3′-isopropyl-2′-(6-isopropyl-2-methoxypyridin-3-yl)-3′H-spiro[dihydroindole-3,4′-pyrrolo[3,4-d]imidazole]-2,6′(5′H)-dione] | 2.28
14 | COc1ncc(-c2nc3c(n2C(C)C)[C@]2(C(=O)Nc4cc(Cl)ccc42)N(c2cc(Cl)ccc2C#N)C3=O)c(OC)n1 [Example R-151, (R)-4-chloro-2-(6-chloro-2′-(2,4-dimethoxypyrimidin-5-yl)-3′-isopropyl-2,6′-dioxo-3′,6′-dihydro-5′H-spiro[dihydroindole-3,4′-pyrrolo[3,4-d]imidazole]-5′-yl)benzonitrile] | 5.37
15 | COc1cc(C(F)(F)F)ncc1-c1nc2c(n1C(C)C)[C@]1(C(=O)Nc3cc(Cl)ccc31)N(c1cc(Cl)cnc1C)C2=O [Example R-152, (R)-6-chloro-5′-(5-chloro-2-methylpyridin-3-yl)-3′-isopropyl-2′-(4-methoxy-6-(trifluoromethyl)pyridine-3-yl)-3′H-spiro[dihydroindole-3,4′-pyrrolo[3,4-d]imidazole]-2,6′(5′H)-dione] | 0.134
16 | COc1cc(OCC(F)F)ncc1-c1nc2c(n1C(C)C)[C@]1(C(=O)Nc3cc(Cl)ccc31)N(c1cc(Cl)ccc1C)C2=O [Example R-153, (R)-6-chloro-5′-(5-chloro-2-methylphenyl)-2′-(6-(2,2-difluoroethoxy)-4-methoxypyridin-3-yl)-3′-isopropyl-3′H-spiro[dihydroindole-3,4′-pyrrolo[3,4-d]imidazole]-2,6′(5′H)-dione] | 0.0311
17 | COc1cc(C)ncc1-c1nc2c(n1C(C)C)[C@]1(C(=O)Nc3cc(Cl)ccc31)N(c1cc(Cl)ccc1C)C2=O [Example R-154, (R)-6-chloro-5′-(5-chloro-2-methylphenyl)-3′-isopropyl-2′-(4-methoxy-6-methylpyridin-3-yl)-3′H-spiro[dihydroindole-3,4′-pyrrolo[3,4-d]imidazole]-2,6′(5′H)-dione] | 0.0311
